{
  "source": "paper PMC6456411",
  "about": "(Angewandte Chemie (International ed. in English), 2019)",
  "key": {"[1]": {"system": "Saos-2 cells in 3D culture", "assay": "Cytotoxicity of chemotherapy drugs on 3D cell spheroids of Saos-2", "type": "cell-based"}, "[2]": {"system": "Saos-2 cells", "assay": "Cytotoxicity of chemotherapy drugs on 2D cell culture of Saos-2"}, "[3]": {"system": "co-culture of HS-5 and Saos-2 cells, 3D cell spheroids", "assay": "Cytotoxicity of chemotherapy drugs on co-cultured 3D spheroids", "type": "cell-based", "conditions": "co-culture 3D cell spheroids, 24 h; for cell toxicity: within the tested concentrations"}, "[4]": {"system": "co-culture of HS-5 and Saos-2 cells, 2D cell sheets", "assay": "Cytotoxicity of chemotherapy drugs on co-cultured 2D cell sheets", "type": "cell-based", "conditions": "co-culture 2D cell sheets, 24 h; for cell toxicity: within the tested concentrations"}, "[5]": {"system": "co-culture of HS-5 and Saos-2 cells", "assay": "Spheroid formation and live-dead assay in co-culture of HS-5 and Saos-2 cells", "type": "cell-based", "conditions": "treated for 48 h; 1P:2 300 μM, ratio 1:1"}, "[6]": {"conditions": "Homo sapiens, SAOS-2, 48 h, read-out: IC50 against Saos-2 cells"}},
  "note": "Like-named read-outs stand apart in the source and are kept apart here.",
  "data": [
    {"smiles": "COc1cccc2c1C(=O)c1c(O)c3c(c(O)c1C2=O)C[C@@](O)(C(=O)CO)C[C@@H]3O[C@H]1C[C@H](N)[C@H](O)[C@H](C)O1", "note": "[Dox, doxorubicin]", "values": [
      {"measurement": "IC50", "setting": "[1]; [6]", "result": "> 6", "unit": "µM"},
      {"measurement": "increase of IC50 in 3D culture than 2D culture", "setting": "[1]; Saos-2 cells, 48 h", "result": "more than 3 times"},
      {"measurement": "IC50", "setting": "[2]; [6]", "result": 1.4, "unit": "µM"},
      {"measurement": "cell death", "setting": "[3]; 5 μM", "result": "hardly causes cell death"},
      {"measurement": "cell toxicity", "setting": "[3]", "result": "little toxicity"},
      {"measurement": "cell killing", "setting": "[4]; 5 μM", "result": "kills about half of cells"},
      {"measurement": "cell toxicity", "setting": "[4]", "result": "dosage dependent cell toxicity"}
    ]},
    {"smiles": "N.N.[Cl][Pt][Cl]", "note": "[cisplatin]", "values": [
      {"measurement": "IC50", "setting": "[1]; read-out: IC50 against Saos-2 cells, 3D culture, 48 h", "result": 33.3, "unit": "µM"},
      {"measurement": "IC50", "setting": "[1]; read-out: increase of IC50 in 3D culture, Saos-2 cells, 48 h, 3D versus 2D", "result": 12, "unit": "µM"},
      {"measurement": "cell death", "setting": "[3]; 50 nM", "result": "hardly causes cell death"},
      {"measurement": "cell toxicity", "setting": "[3]", "result": "little toxicity"},
      {"measurement": "cell killing", "setting": "[4]; 50 nM", "result": "kills about half of cells"},
      {"measurement": "cell toxicity", "setting": "[4]", "result": "dosage dependent cell toxicity"}
    ]},
    {"smiles": "CN[C@H](CC(C)C)C(=O)N[C@H]1C(=O)N[C@@H](CC(N)=O)C(=O)N[C@H]2C(=O)N[C@H]3C(=O)N[C@H](C(=O)N[C@H](C(=O)O)c4cc(O)cc(O)c4-c4cc3ccc4O)[C@H](O)c3ccc(c(Cl)c3)Oc3cc2cc(c3O[C@@H]2O[C@H](CO)[C@@H](O)[C@H](O)[C@H]2O[C@H]2C[C@](C)(N)[C@H](O)[C@H](C)O2)Oc2ccc(cc2Cl)[C@H]1O", "note": "[compound 2, vancomycin]", "values": [
      {"measurement": "influence on cytotoxicity of chemotherapy drugs against Saos-2 cells", "setting": "[2]; co-incubating with chemotherapy drugs", "result": "hardly influence their cytotoxicity"},
      {"measurement": "morphology of co-cultured HS-5 and Saos-2 cells", "setting": "[5]", "result": "remain a 2D cell sheet"}
    ]},
    {"smiles": "CC(=O)O[C@H]1C(=O)[C@@]2(C)[C@H]([C@H](OC(=O)c3ccccc3)[C@]3(O)C[C@H](OC(=O)[C@H](O)[C@@H](NC(=O)c4ccccc4)c4ccccc4)C(C)=C1C3(C)C)[C@]1(OC(C)=O)CO[C@@H]1C[C@@H]2O", "note": "[taxol]", "values": [
      {"measurement": "cell viability", "setting": "[1]; Saos-2 3D spheroids, 40 nM, 48 h", "result": 94.25, "unit": "%"},
      {"measurement": "cell viability", "setting": "[2]; Saos-2 2D sheet, 40 nM, 48 h", "result": 60.84, "unit": "%"}
    ]}
  ]
}
